Assay results taken from US20180002320A1, “USE OF MACROCYCLIC PICOLINAMIDES AS FUNGICIDES” (DOW AGROSCIENCES LLC, priority 2014, published 2018).
Where two headings read alike, the source gives them in different places.

How the values were obtained:
Puccinia triticina = test: Wheat Brown Rust (PUCCRT) fungicidal activity; type: in vivo; conditions: Low Volume (121.5 g/H)
Protocol: Technical grades of materials were dissolved in acetone, which were then mixed with nine volumes of H2O containing 110 ppm Triton X-100. The fungicide solutions were applied onto wheat seedlings using an automated booth sprayer to run-off. All sprayed plants were allowed to air dry prior to further handling. All fungicides were evaluated using the aforementioned method for their activity vs. all target diseases, unless stated otherwise. Wheat leaf blotch and brown rust activity were also evaluated using track spray applications, in which case the fungicides were formulated as EC formulations, containing 0.1% Trycol 5941 in the spray solutions. Wheat plants (variety Yuma) were grown from seed in a greenhouse in 50% mineral soil/50% soil-less Metro mix until the first leaf was fully emerged, with 7-10 seedlings per pot. These plants were inoculated with an aqueous spore suspension of Puccinia triticina either prior to or after fungicide treatments. After inoculation the plants were kept in a dark dew room at 22° C. with 100% relative humidity overnight to permit spores to germinate and infect the leaf. The plants were then transferred to a greenhouse set at 24° C. for disease to develop. Fungicide formulation, application and disease assessment followed the procedures as described in the Example A.

Zymoseptoria tritici = test: Leaf Blotch of Wheat (SEPTTR) fungicidal activity; type: in vivo; conditions: Low Volume (121.5 g/H)
Protocol: Technical grades of materials were dissolved in acetone, which were then mixed with nine volumes of H2O containing 110 ppm Triton X-100. The fungicide solutions were applied onto wheat seedlings using an automated booth sprayer to run-off. All sprayed plants were allowed to air dry prior to further handling. All fungicides were evaluated using the aforementioned method for their activity vs. all target diseases, unless stated otherwise. Wheat leaf blotch and brown rust activity were also evaluated using track spray applications, in which case the fungicides were formulated as EC formulations, containing 0.1% Trycol 5941 in the spray solutions. Wheat plants (variety Yuma) were grown from seed in a greenhouse in 50% mineral soil/50% soil-less Metro mix until the first leaf was fully emerged, with 7-10 seedlings per pot. These plants were inoculated with an aqueous spore suspension of Zymoseptoria tritici either prior to or after fungicide treatments. After inoculation the plants were kept in 100% relative humidity (one day in a dark dew chamber followed by two to three days in a lighted dew chamber at 20° C.) to permit spores to germinate and infect the leaf. The plants were then transferred to a greenhouse set at 20° C. for disease to develop. When disease symptoms were fully expressed on the 1st leaves of untreated plants, infection levels were assessed on a scale of 0 to 100 percent disease severity. Percent disease control was calculated using the ratio of disease severity on treated plants relative to untreated plants.

[1] = 24 h, 1 Day Protectant, read-out: PUCCRT 1DP disease control
[2] = 72 h, 3 Day Curative, read-out: PUCCRT 3DC disease control
[3] = 24 h, 1 Day Protectant, read-out: SEPTTR 1DP disease control
[4] = 72 h, 3 Day Curative, read-out: SEPTTR 3DC disease control

Structure (SMILES) | pest or weed control at 121.5 g/ha (Puccinia triticina; [1]) | pest or weed control at 121.5 g/ha (Puccinia triticina; [2]) | pest or weed control at 121.5 g/ha (Zymoseptoria tritici; [3]) | pest or weed control at 121.5 g/ha (Zymoseptoria tritici; [4])
CCCO[C@H]1CCCC[C@H](NC(=O)c2nccc(OC)c2OC(C)=O)C(=O)O[C@@H](C)[C@@H]1Oc1ccccc1 [Compound 26] | > 80% | > 80% | > 80% | > 80%
COc1ccnc(C(=O)N[C@H]2CCCC[C@H](CC3CCCC3)[C@@H](OC)[C@H](C)OC2=O)c1OCOC(C)=O [Compound 61] | > 80% | > 80% | < 80% | < 80%
CCCCO[C@H]1CCOC[C@H](NC(=O)c2nccc(OC)c2OCOC(C)=O)C(=O)O[C@@H](C)[C@@H]1OCc1ccccc1 [Compound 2] | > 80% | > 80% | < 80% | –
COc1ccnc(C(=O)N[C@H]2COCC[C@H](Cc3ccc(F)cc3)[C@@H](OC(=O)C(C)C)[C@H](C)OC2=O)c1OC(C)=O [Compound 75] | > 80% | > 80% | > 80% | < 80%
COc1ccnc(C(=O)N[C@H]2COCC[C@H](Cc3ccc(F)cc3)[C@@H](OC(=O)C(C)C)[C@H](C)OC2=O)c1OCOC(C)=O [Compound 76] | > 80% | > 80% | > 80% | > 80%
COc1ccnc(C(=O)N[C@H]2CCCC[C@@H]3OC(C)(C)O[C@H]3[C@H](C)OC2=O)c1OC(C)=O [Compound 29] | > 80% | > 80% | < 80% | > 80%
COc1ccnc(C(=O)N[C@H]2COCC[C@H](Cc3ccc(F)cc3)[C@@H](Oc3ccccc3)[C@H](C)OC2=O)c1OCOC(C)=O [Compound 72] | > 80% | > 80% | > 80% | > 80%
COc1ccnc(C(=O)N[C@H]2CCCC[C@H](Cc3ccccc3)[C@@H](Oc3ccccc3)[C@H](C)OC2=O)c1OC(C)=O [Compound 64] | > 80% | < 80% | > 80% | > 80%
COc1ccnc(C(=O)N[C@H]2CCCC[C@@H]3OC(C)(C)O[C@H]3[C@H](C)OC2=O)c1OCOC(C)=O [Compound 33] | > 80% | > 80% | < 80% | > 80%
COc1ccnc(C(=O)N[C@H]2CCCC[C@H](OCc3ccccc3)[C@@H](OCc3ccccc3)[C@H](C)OC2=O)c1OCOC(C)=O [Compound 8] | > 80% | > 80% | > 80% | > 80%
COc1ccnc(C(=O)N[C@H]2CCCC[C@H](OCC(C)C)[C@@H](Oc3ccccc3)[C@H](C)OC2=O)c1OCOC(C)=O [Compound 13] | > 80% | > 80% | > 80% | > 80%
CCCCO[C@H]1CCOC[C@H](NC(=O)c2nccc(OC)c2OCOC(C)=O)C(=O)O[C@@H](C)[C@@H]1OC(=O)c1ccccc1 [Compound 4] | > 80% | > 80% | < 80% | –
COc1ccnc(C(=O)N[C@H]2CCCC[C@H](Oc3ccccc3)[C@@H](OC3CCCC3)[C@H](C)OC2=O)c1OCOC(C)=O [Compound 36] | > 80% | > 80% | < 80% | < 80%
COc1ccnc(C(=O)N[C@H]2CCCC[C@H](Cc3ccccc3)[C@@H](OCC(C)C)[C@H](C)OC2=O)c1OCOC(C)=O [Compound 24] | > 80% | < 80% | > 80% | > 80%
COc1ccc(C[C@H]2CCOC[C@H](NC(=O)c3nccc(OC)c3OC(C)=O)C(=O)O[C@@H](C)[C@@H]2Oc2ccccc2)cc1 [Compound 65] | > 80% | < 80% | > 80% | < 80%
